From PubChem BioAssay (NCI)
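All cell lines were grown in 96-well plates and treated with compound for 48 hours. The concentration for full growth arrest is given as TGI.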

How the values were obtained:
Experiment in all cases: growth of human tumour cells (NCI), 48 h
[1] = test system: 786-0 renal
[2] = test system: A498 renal
[3] = test system: A549 NSCLC
[4] = test system: ACHN renal
[5] = test system: CAKI-1 renal
[6] = test system: CCRF-CEM leukemia
[7] = test system: COLO 205 colon
[8] = test system: DU-145 prostate
[9] = test system: EKVX NSCLC
[10] = test system: HCC-2998 colon
[11] = test system: HCT-15 colon
[12] = test system: HOP-62 NSCLC
[13] = test system: HOP-92 NSCLC
[14] = test system: HS 578T breast
[15] = test system: HT29 colon
[16] = test system: IGROV1 ovarian
[17] = test system: K-562 leukemia
[18] = test system: KM12 colon
[19] = test system: LOX IMVI melanoma
[20] = test system: M14 melanoma
[21] = test system: MALME-3M melanoma
[22] = test system: MCF7 breast
[23] = test system: MDA-MB-231 breast
[24] = test system: MDA-MB-435
[25] = test system: MDA-N
[26] = test system: MOLT-4 leukemia
[27] = test system: NCI-H226 lung
[28] = test system: NCI-H23 lung
[29] = test system: NCI-H460 lung
[30] = test system: NCI-H522 lung
[31] = test system: NCI/ADR-RES ovarian
[32] = test system: OVCAR-3 ovarian
[33] = test system: OVCAR-4 ovarian
[34] = test system: OVCAR-5 ovarian
[35] = test system: OVCAR-8 ovarian
[36] = test system: PC-3 prostate
[37] = test system: RPMI-8226 leukemia
[38] = test system: RXF 393 renal
[39] = test system: SF-268 CNS
[40] = test system: SF-295 CNS
[41] = test system: SF-539 CNS
[42] = test system: SK-MEL-2 melanoma
[43] = test system: SK-MEL-28 melanoma
[44] = test system: SK-MEL-5 melanoma
[45] = test system: SK-OV-3 ovarian
[46] = test system: SNB-19 CNS
[47] = test system: SNB-75 CNS
[48] = test system: SR leukemia
[49] = test system: SW-620 colon
[50] = test system: T-47D breast
[51] = test system: TK-10 renal
[52] = test system: U251 CNS
[53] = test system: UACC-257 melanoma
[54] = test system: UACC-62 melanoma
[55] = test system: UO-31 renal

Measured: TGI

CN1C(=O)CC2CCCN2C1=O (stereo not given)
> 100 µM: [1] | [2] | [3] | [4] | [5] | [6] | [7] | [8] | [9] | [10] | [11] | [12] | [13] | [14] | [15] | [16] | [17] | [18] | [19] | [20] | [21] | [22] | [23] | [24] | [25] | [26] | [27] | [28] | [29] | [30] | [31] | [32] | [33] | [34] | [35] | [36] | [37] | [38] | [39] | [40] | [41] | [42] | [43] | [44] | [45] | [46] | [47] | [48] | [49] | [50] | [51] | [52] | [53] | [54] | [55]
